Measured values as given in patent US6737383B1, “Herbicidal oxadiazolidines” (priority 1999, dated 2004).

Key:
bedstraw = assay: Test B pre/postemergence bedstraw; type: in vivo, Galium aparine
In short: (§1)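 Test chemicals in a non-phytotoxic solvent mixture with surfactant were sprayed preemergence onto planted seeds and postemergence onto plants 2 to 18 cm tall (1- to 4-leaf stage). After twelve to sixteen days in a greenhouse, injury was visually rated against untreated controls from 0 (no effect) to 10 (complete control).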

blackgrass = assay: Test B pre/postemergence blackgrass; type: in vivo, Alopecurus myosuroides
In short: as §1

surinam grass = assay: Test B pre/postemergence surinam grass; type: in vivo, Brachiaria decumbens
In short: as §1

cocklebur = assay: Test B pre/postemergence cocklebur; type: in vivo, Xanthium strumarium
In short: as §1

corn = assay: Test B pre/postemergence corn; type: in vivo, Zea mays
In short: as §1

giant foxtail = assay: Test B pre/postemergence giant foxtail; type: in vivo, Setaria faberii
In short: as §1

morningglory = assay: Test B pre/postemergence morningglory; type: in vivo, Ipomoea hederacea
In short: as §1

pigweed = assay: Test B pre/postemergence pigweed; type: in vivo, Amaranthus retroflexus
In short: as §1

rape = assay: Test B pre/postemergence rape; type: in vivo, Brassica napus
In short: as §1

soybean = assay: Test B pre/postemergence soybean; type: in vivo, Glycine max
In short: as §1

sugar beet = assay: Test B pre/postemergence sugar beet; type: in vivo, Beta vulgaris
In short: as §1

velvetleaf = assay: Test B pre/postemergence velvetleaf; type: in vivo, Abutilon theophrasti
In short: as §1

wheat = assay: Test B pre/postemergence wheat; type: in vivo, Triticum aestivum
In short: as §1

wild oat = assay: Test B pre/postemergence wild oat; type: in vivo, Avena fatua
In short: as §1

rice = assay: Test B flood test rice; type: in vivo, Oryza sativa
In short: (§2)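 Flood test on plants grown to the 2-leaf stage; treated plants kept in greenhouse twelve to sixteen days, then visually rated against controls on a 0 (no effect) to 10 (complete control) scale.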

smallflower flatsedge = assay: Test B flood test smallflower flatsedge; type: in vivo, Cyperus difformis
In short: as §2

[1] = Preemergence, Rate 62 g/ha, scale of 0 to 10 where 0 is no effect and 10 is complete control
[2] = Preemergence, Rate 125 g/ha, 0 is no effect, 10 is complete control
[3] = Preemergence, Rate 250 g/ha, scale 0 to 10, 0 is no effect, 10 is complete control
[4] = Preemergence, Rate 500 g/ha, scale 0 to 10 (0 no effect, 10 complete control)
[5] = Rate 62 g/ha, Postemergence, scale of 0 to 10 where 0 is no effect and 10 is complete control
[6] = Rate 125 g/ha, Postemergence, scale 0 to 10
[7] = Rate 500 g/ha, Postemergence, scale 0 to 10
[8] = Rate 62 g/ha, headed Pre-emergence (flood test species), scale 0 to 10 (0 no effect, 10 complete control)
[9] = Rate 125 g/ha, Pre-emergence, flood test species, scale 0 to 10 where 0 is no effect and 10 is complete control
[10] = Rate 250 g/ha, Pre-emergence, flood-test species, scale 0 to 10, 0 is no effect, 10 is complete control

Cc1nc(C)c(Cn2c(=O)on(C(=O)N(c3ccc(Cl)cc3)C(C)C)c2=O)s1 [Compound 191]
8: Giant foxtail plant response rating (0 to 10 scale) (giant foxtail; [2]) | Morningglory plant response rating (morningglory; [7])
3: Blackgrass plant response rating (blackgrass; [7]) | B. signalgrass plant response rating (surinam grass; [4]) | Cocklebur plant response rating (cocklebur; [7]) | Giant foxtail plant response rating (giant foxtail; [1]) | Soybean plant response rating (soybean; [5]) | Soybean plant response rating (soybean; [6]) | Plant response rating (0 to 10; 0 is no effect, 10 is complete control), Soybean (soybean; Rate 250 g/ha, Postemergence) | Wild oats plant response rating (wild oat; [3])
2: Cocklebur plant response rating (cocklebur; [6]) | Plant response rating (0 to 10; 0 is no effect, 10 is complete control), Cocklebur (cocklebur; Rate 250 g/ha, Postemergence) | Giant foxtail plant response rating (giant foxtail; [7]) | Morningglory plant response rating (morningglory; [6]) | Plant response rating (0 to 10; 0 is no effect, 10 is complete control), Morningglory (morningglory; Rate 250 g/ha, Postemergence) | Plant response rating (0 to 10; 0 is no effect, 10 is complete control), Velvetleaf (velvetleaf; Rate 250 g/ha, Postemergence) | Wheat plant response rating (wheat; [4])
0: Bedstraw plant response rating (bedstraw; [1]) | Bedstraw plant response rating (0 to 10 scale) (bedstraw; [2]) | Bedstraw plant response rating (bedstraw; [3]) | Bedstraw plant response rating (bedstraw; [4]) | Bedstraw plant response rating (bedstraw; [5]) | Bedstraw plant response rating (bedstraw; [6]) | Plant response rating (0 to 10; 0 is no effect, 10 is complete control), Bedstraw (bedstraw; Rate 250 g/ha, Postemergence) | Bedstraw plant response rating (bedstraw; [7]) | Blackgrass plant response rating (blackgrass; [1]) | Blackgrass plant response rating (0 to 10 scale) (blackgrass; [2]) | Blackgrass plant response rating (blackgrass; [5]) | Blackgrass plant response rating (blackgrass; [6]) | Plant response rating (0 to 10; 0 is no effect, 10 is complete control), Blackgrass (blackgrass; Rate 250 g/ha, Postemergence) | B. signalgrass plant response rating (surinam grass; [1]) | B. signalgrass plant response rating (0 to 10 scale) (surinam grass; [2]) | B. signalgrass plant response rating (surinam grass; [3]) | B. signalgrass plant response rating (surinam grass; [5]) | B. signalgrass plant response rating (surinam grass; Rate 125 g/ha, Postemergence, scale 0 (no effect) to 10 (complete control)) | Plant response rating, B. signalgrass (surinam grass; Rate 250 g/ha, Postemergence, scale 0 to 10, 0 is no effect, 10 is complete control) | Cocklebur plant response rating (cocklebur; [1]) | Cocklebur plant response rating (0 to 10 scale) (cocklebur; [2]) | Cocklebur plant response rating (cocklebur; [3]) | Cocklebur plant response rating (cocklebur; [4]) | Corn plant response rating (corn; [1]) | Corn plant response rating (0 to 10 scale) (corn; [2]) | Corn plant response rating (corn; [3]) | Corn plant response rating (corn; [4]) | Corn plant response rating (corn; [5]) | Corn plant response rating (corn; [6]) | Plant response rating (0 to 10; 0 is no effect, 10 is complete control), Corn (corn; Rate 250 g/ha, Postemergence) | Corn plant response rating (corn; [7]) | Giant foxtail plant response rating (giant foxtail; [5]) | Giant foxtail plant response rating (giant foxtail; [6]) | Plant response rating (0 to 10; 0 is no effect, 10 is complete control), Giant foxtail (giant foxtail; Rate 250 g/ha, Postemergence) | Morningglory plant response rating (morningglory; [1]) | Morningglory plant response rating (morningglory; [3]) | Morningglory plant response rating (morningglory; [4]) | Redroot pigweed plant response rating (pigweed; [1]) | Redroot pigweed plant response rating (0 to 10 scale) (pigweed; [2]) | Redroot pigweed plant response rating (pigweed; [5]) | Redroot pigweed plant response rating (pigweed; [6]) | Plant response rating (0 to 10; 0 is no effect, 10 is complete control), Redroot pigweed (pigweed; Rate 250 g/ha, Postemergence) | Redroot pigweed plant response rating (pigweed; [7]) | Rape plant response rating (rape; [1]) | Rape plant response rating (0 to 10 scale) (rape; [2]) | Rape plant response rating (rape; [3]) | Rape plant response rating (rape; [4]) | Rape plant response rating (rape; [5]) | Rape plant response rating (rape; [6]) | Plant response rating (0 to 10; 0 is no effect, 10 is complete control), Rape (rape; Rate 250 g/ha, Postemergence) | Rape plant response rating (rape; [7]) | Soybean plant response rating (soybean; [1]) | Soybean plant response rating (0 to 10 scale) (soybean; [2]) | Soybean plant response rating (soybean; [3]) | Soybean plant response rating (soybean; [4]) | Sugarbeets plant response rating (sugar beet; [1]) | Sugarbeets plant response rating (0 to 10 scale) (sugar beet; [2]) | Sugarbeets plant response rating (sugar beet; [3]) | Sugarbeets plant response rating (sugar beet; [4]) | Sugarbeets plant response rating (sugar beet; [5]) | Sugarbeets plant response rating (sugar beet; [6]) | Plant response rating (0 to 10; 0 is no effect, 10 is complete control), Sugarbeets (sugar beet; Rate 250 g/ha, Postemergence) | Sugarbeets plant response rating (sugar beet; [7]) | Velvetleaf plant response rating (velvetleaf; [1]) | Velvetleaf plant response rating (velvetleaf; [3]) | Velvetleaf plant response rating (velvetleaf; [4]) | Velvetleaf plant response rating (velvetleaf; [5]) | Velvetleaf plant response rating (velvetleaf; [6]) | Wheat plant response rating (wheat; [1]) | Wheat plant response rating (wheat; [3]) | Wheat plant response rating (wheat; [5]) | Wheat plant response rating (wheat; [6]) | Plant response rating (0 to 10; 0 is no effect, 10 is complete control), Wheat (wheat; Rate 250 g/ha, Postemergence) | Wild oats plant response rating (wild oat; [5]) | Wild oats plant response rating (wild oat; [6]) | Plant response rating (0 to 10; 0 is no effect, 10 is complete control), Wild oats (wild oat; Rate 250 g/ha, Postemergence) | Rice plant response rating (rice; [8]) | Rice plant response rating (rice; [9]) | Rice plant response rating (rice; [10]) | Plant response rating, Rice (rice; Rate 500 g/ha, headed Pre-emergence (flood test species), scale 0 to 10 (0 no effect, 10 complete control)) | S. Flatsedge plant response rating (smallflower flatsedge; [8]) | S. Flatsedge plant response rating (smallflower flatsedge; [9]) | S. Flatsedge plant response rating (smallflower flatsedge; [10]) | S. Flatsedge plant response rating (smallflower flatsedge; Rate 500 g/ha, Pre-emergence, flood test species, scale 0 to 10 (0 no effect, 10 complete control))
9: Giant foxtail plant response rating (giant foxtail; [3])
6: Blackgrass plant response rating (blackgrass; [4]) | Redroot pigweed plant response rating (pigweed; [4])
10: Giant foxtail plant response rating (giant foxtail; [4])
7: Wild oats plant response rating (wild oat; [4])
1: B. signalgrass plant response rating (surinam grass; Rate 500 g/ha, Postemergence, scale 0 to 10, 0 no effect, 10 complete control) | Cocklebur plant response rating (cocklebur; [5]) | Morningglory plant response rating (morningglory; [5]) | Redroot pigweed plant response rating (pigweed; [3])
4: Blackgrass plant response rating (blackgrass; [3]) | Soybean plant response rating (soybean; [7])
